One block for each compound: values may come before it.
Assays:
[1] = target: T1, 5-hydroxytryptamine receptor 1A (Rattus norvegicus, UniProt P19327); type: tissue-based, Hippocampus
T1 sequence (P19327 whole entry): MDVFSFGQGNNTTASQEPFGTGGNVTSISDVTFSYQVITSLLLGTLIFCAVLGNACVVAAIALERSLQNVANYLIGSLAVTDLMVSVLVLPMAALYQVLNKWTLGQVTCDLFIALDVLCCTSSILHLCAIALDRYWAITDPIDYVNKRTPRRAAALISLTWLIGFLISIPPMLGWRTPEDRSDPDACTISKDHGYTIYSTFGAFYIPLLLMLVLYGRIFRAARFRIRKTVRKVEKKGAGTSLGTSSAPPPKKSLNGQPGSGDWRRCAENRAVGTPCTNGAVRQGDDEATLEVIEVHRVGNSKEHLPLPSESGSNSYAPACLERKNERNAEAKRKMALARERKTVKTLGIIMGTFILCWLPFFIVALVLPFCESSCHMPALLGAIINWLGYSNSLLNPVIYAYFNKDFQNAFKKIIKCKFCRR

[2] = target: T1, 5-hydroxytryptamine receptor 1A; assay: biochemical
Description: Inhibition of binding of [125I]8-OH-PIPAT ligand to 5-hydroxytryptamine 1A receptor of rat hippocampal homogenates

[3] = target: T2, 5-hydroxytryptamine receptor 1A (Rattus norvegicus) (UniProt P19327); type: tissue-based; settings: Hippocampus
T2 sequence (whole entry): T1 sequence (P19327 whole entry)

[4] = target: T1, 5-hydroxytryptamine receptor 1A; type: tissue-based, Hippocampus; remark: listed apart in the source

Kd [1]: 0.3 nM
Compound: COc1ccccc1N1CCN(CCN(C(=O)c2ccc(I)cc2)c2ccccn2)CC1

Ki [2]: 0.38 nM | Bmax (fM (mg of protein)-1) [3]: 310
Compound: CCCN(C/C=C/I)C1CCc2cccc(O)c2C1 (centres undefined)

Kd [4]: 0.4 nM
Compound: COc1ccccc1N1CCN(CCCCNC(=O)C23C[C@H]4C[C@@H](C2)C[C@@H](C3)C4)CC1

From ChEMBL document CHEMBL1127504, “Synthesis and evaluation of 4-(2'-methoxyphenyl)-1-[2'-[N-(2"-pyridinyl)-p- iodobenzamido]ethyl]piperazine (p-MPPI): a new iodinated 5-HT1A ligand” (J Med Chem, 1994)
